Assay results from US10011629B2, “Nucleoside analogs for treatment of the flaviviridae family of viruses and cancer” (Cocrystal Pharma, Inc., priority 2015, dated 2018).

Legend:
[1] = Cellular toxicity assay in Vero cells; assay type: cell-based; conditions: African green monkey; for CC50: read-out: Cytotoxicity, CC50; for cytotoxicity: value in parentheses after CC50, read-out: Cytotoxicity (% inhibition)
Experimental: (§1) The toxicity of the compounds was assessed in Vero, human PBM, CEM (human lymphoblastoid), MT-2, and HepG2 cells, as described previously (see Schinazi R. F., Sommadossi J.-P., Saalmann V., Cannon D. L., Xie M.-Y., Hart G. C., Smith G. A. & Hahn E. F. Antimicrob. Agents Chemother. 1990, 34, 1061-67).
(§2) Cycloheximide was included as positive cytotoxic control, and untreated cells exposed to solvent were included as negative controls. The cytotoxicity IC50 was obtained from the concentration-response curve using the median effective method described previously (see Chou T.-C. & Talalay P. Adv. Enzyme Regul. 1984, 22, 27-55; Belen′kii M. S. & Schinazi R. F. Antiviral Res. 1994, 25, 1-11).

[2] = Cellular toxicity assay in PBM cells; assay type: cell-based; conditions: human; for CC50: read-out: Cytotoxicity, CC50; for cytotoxicity: value in parentheses after CC50, read-out: Cytotoxicity (% inhibition)
Experimental: as §1, §2

[3] = Cellular toxicity assay in CEM cells; assay type: cell-based; conditions: human; for CC50: read-out: Cytotoxicity, CC50; for cytotoxicity: value in parentheses after CC50, read-out: Cytotoxicity (% inhibition)
Experimental: as §1, §2

HepaRG cells = assay: HepaRG 14-day cell viability assay (CellTiter-Glo); assay type: cell-based; conditions: 14 days with 4 repeat doses
Experimental: IC50 in HepaRG Cells for a 14-Day Assay (Non-Proliferating Liver Cells) Using Cell Titer GLO
HepaRG cells are plated one week prior to dosing to allow for the cells to regain its maximal metabolic activity and structure. HepaRG cells are dosed with increasing concentrations of the test compound (final DMSO concentration=0.5%); final test compound concentrations of 100, 30, 10, 3, 1, 0.3, 0.1, 0.03 μM for an eight point dose response curve (n=3 replicates per concentration) and the microtissues are incubated for 14 days with 4 repeat doses. Appropriate controls are simultaneously used as quality controls. Following the dosing period the medium is removed the cell viability is determined using CellTiter-Glo® reagent. The test sample is subsequently transferred to designated wells of a white assay plate and the luminescence determined using a luminometer.
IC50 values are also determined provided a clear dose-response relationship is observed.

[4] = tested on: nuclear DNA (ß-actin or rRNA gene) in HepG2 cells; assay: Nuclear DNA level in HepG2 cells (real-time PCR); assay type: cell-based, human; conditions: HepG2 cells, 14-day assay; for % inhibition nDNA: 10 μM; for IC50: read-out: IC50 nDNA
Experimental: (§3) This assay was used in all studies described in this application that determine the effect of compounds on mitochondrial DNA content. In this assay, low-passage-number HepG2 cells were seeded at 5,000 cells/well in collagen-coated 96-well plates. Test compounds were added to the medium to obtain final concentrations of 0 μM, 0.1 μM, 10 μM and 100 μM. […] The mitochondrial cytochrome c oxidase subunit II (COXII) gene and the ß-actin or rRNA gene were amplified from 5 μl of the eluted nucleic acids using a multiplex Q-PCR protocol with suitable primers and probes for both target and reference amplifications. […] For exon 3 of the ß-actin gene (GenBank accession number E01094) the sense, probe, and antisense primers are 5′-[…]-3′ (SEQ ID NO. 4), 5′-6-[…]-3′ (SEQ ID NO. 5) and 5′-[…]-3′ (SEQ ID NO. 6), respectively. The primers and probes for the rRNA gene are commercially available from Applied Biosystems. […] The comparative CT method uses arithmetic formulas in which the amount of target (COXII gene) is normalized to the amount of an endogenous reference (the B-actin or rRNA gene) and is relative to a calibrator (a control with no drug at day 7). The arithmetic formula for this approach is given by 2-ΔΔCT, where ΔΔCT is (CT for average target test sample−CT for target control)−(CT for average reference test−CT for reference control) (see Johnson M R, K Wang, J B Smith, M J Heslin, R B Diasio. Quantitation of dihydropyrimidine dehydrogenase expression by real-time reverse transcription polymerase chain reaction. Anal. Biochem. 2000; 278:175-184). A decrease in mitochondrial DNA content in cells grown in the presence of drug indicated mitochondrial toxicity.

[5] = tested on: mitochondrial DNA (COXII gene) in HepG2 cells; assay: Mitochondrial DNA level in HepG2 cells (real-time PCR); conditions: for % inhibition MitDNA / IC50: HepG2 cells, 14-day assay; for % inhibition MitDNA: 10 μM; for IC50: read-out: IC50 MitDNA
Experimental: as §3, with “The” for “The comparative CT method uses arithmetic formulas in which the amount of target (COXII gene) is normalized to the amount of an endogenous reference (the B-actin or rRNA gene) and is relative to a calibrator (a control with no drug at day 7). The”

HepG2 cells = assay: Lactic acid production in HepG2 cells; assay type: cell-based, human; conditions: 14-day assay, 10 μM
Experimental: To measure the effects of the compounds on lactic acid production, HepG2 cells from a stock culture were diluted and plated in 12-well culture plates at 2.5×10^4 cells per well. […] […] The culture medium was then filtered, and the lactic acid content in the medium was determined using a colorimetric lactic acid assay (Sigma-Aldrich). Since lactic acid product can be considered a marker for impaired mitochondrial function, elevated levels of lactic acid production detected in cells grown in the presence of test compounds would indicate a drug-induced cytotoxic effect.

[6] = tested on: HCV 1b (Huh 7 Clone B cells containing HCV Replicon RNA); assay: HCV replicon assay; assay type: cell-based; conditions: HCV 1b replicon; for EC50 / EC90: Hepatitis C virus, Huh-7, letter value; for EC50: read-out: EC50 (μM or letter value); for EC90: read-out: EC90 (μM or letter value) or % inhib HCV
Experimental: Huh 7 Clone B cells containing HCV Replicon RNA were seeded in a 96-well plate at 5000 cells/well, and the compounds tested at 10 μM in triplicate immediately after seeding. Following five days incubation (37° C., 5% CO2), total cellular RNA was isolated by using versaGene RNA purification kit from Gentra. Replicon RNA and an internal control (TaqMan rRNA control reagents, Applied Biosystems) were amplified in a single step multiplex Real Time RT-PCR Assay. The antiviral effectiveness of the compounds was calculated by subtracting the threshold RT-PCR cycle of the test compound from the threshold RT-PCR cycle of the no-drug control (ΔCt HCV). A ΔCt of 3.3 equals a 1-log reduction (equal to 90% less starting material) in Replicon RNA levels. The cytotoxicity of the compounds was also calculated by using the ΔCt rRNA values. 2′-C-Me-C was used as the positive control. To determine EC90 and IC50 values^2, ΔCt: values were first converted into fraction of starting material^3 and then were used to calculate the % inhibition. […]

CC(C)OC(=O)[C@H](C)NP(=O)(OC[C@H]1O[C@@H](n2ccc(=O)[nH]c2=O)C(F)(Br)C1O)Oc1ccccc1 (some centres unmarked)
CC50 [1]: > 100 µM | cytotoxicity [1]: 2.6% | CC50 [2]: > 100 µM | cytotoxicity [2]: -3.8% | CC50 [3]: > 100 µM | cytotoxicity [3]: 14%

N#CC(C#N)=NNc1cccc(Cl)c1 [Carbonyl cyanide m-chlorophenyl hydrazone, reference compound]
IC50 (HepaRG cells; Homo sapiens, 336 h): 5.08 µM

Tunicamycin [reference compound]
IC50 (HepaRG cells): 0.011 µM

Nc1ccn([C@@H]2CS[C@H](CO)O2)c(=O)n1 [Compound 3TC, reference compound]
% inhibition nDNA [4]: 26.8% | IC50 [4]: > 10 µM | % inhibition MitDNA [5]: 33.3% | IC50 [5]: > 10 µM | Lactic acid Production (% of control) (HepG2 cells): 94.9 ± 12.2 % of control

O=c1ccn([C@@H]2O[C@H](CO)[C@@H](O)[C@]2(F)Br)c(=O)[nH]1
CC50 [1]: > 100 µM | cytotoxicity [1]: 4.2% | CC50 [2]: > 100 µM | cytotoxicity [2]: -24% | CC50 ([3]; CEM lymphoblastoid cells): > 100 µM | cytotoxicity ([3]; CEM lymphoblastoid cells): 21%

CC(C)OC(=O)[C@H](C)NP(=O)(OC[C@H]1O[C@@H](n2ccc(N)nc2=O)[C@](F)(Br)[C@@H]1O)Oc1ccccc1 (stereo partly drawn) [Compound 21, Isopropyl ((((2R,3R,4R,5R)-5-(4-amino-2-oxopyrimidin-1(2H)-yl)-4-bromo-4-fluoro-3-hydroxytetrahydrofuran-2-yl)methoxy)(phenoxy)phosphoryl)-L-alaninate]
EC50 (μM or letter value): value printed as % @ 10 μM ([6]; 10 μM): 67.9% @ 10 μM

CC(C)OC(=O)[C@H](C)N[P@](=O)(OC[C@H]1O[C@@H](n2ccc(=O)[nH]c2=O)[C@@](F)(Br)C1O)Oc1ccccc1 (some centres unmarked) [Compound 23]
EC50 [6]: 0.1 to 1 µM | EC90 [6]: 0.1 to 1 µM | IC50 (HepaRG cells; Homo sapiens, 336 h): 35 µM

Nc1ccn([C@H]2CC[C@@H](CO)O2)c(=O)n1 [ddc, reference compound]
% inhibition nDNA [4]: 88.7% | IC50 [4]: < 10 µM | Summary (mitochondrial toxicity) [5]: toxic | % inhibition MitDNA [5]: 99.9% | IC50 [5]: < 10 µM | Lactic acid Production (% of control) (HepG2 cells): 267 ± 25.2 % of control

CC(C)OC(=O)[C@H](C)N[P@@](=O)(OC[C@H]1O[C@@H](n2ccc(=O)[nH]c2=O)[C@@](F)(Br)C1O)Oc1ccccc1 (some centres unmarked) [Compound 22]
EC50 [6]: 0.1 to 1 µM | EC90 [6]: 1 to 10 µM | IC50 (HepaRG cells; Homo sapiens, 336 h): 7.18 µM
